Experimental data published in US9776990B2, “Isoindolone derivatives” (AbbVie Inc., priority 2012, dated 2017).

Legend:
BRD4 (BDI_K57-E168) = BRD4 (BDI_K57-E168) (Homo sapiens (Human), UniProt O60885); assay: TR-FRET bromodomain binding assay, BRD4 first bromodomain; details: His-tagged BD1, 100 nM Alexa647 probe
Procedure: (§1) A time-resolved fluorescence resonance energy transfer (TR-FRET) assay was used to determine the affinities of compounds of the Examples listed in Table 1 for each bromodomain of BRD4. His-tagged first (BD1: amino acids K57-E168) and second (BD2: amino acids E352-E168) bromodomains of BRD4 were expressed and purified. An Alexa647-labeled BET-inhibitor was used as the fluorescent probe in the assay.
(§2) Compound dilution series were prepared in DMSO via a 3-fold serial dilution from 2.5 mM to 42 nM. Compounds were then diluted 6:100 in assay buffer (20 mM Sodium Phosphate, pH 6.0, 50 mM NaCl, 1 mM EDTA, 0.01% Triton X-100, 1 mM DTT) to yield 3× working solutions. Six microliters (μL) of the working solution was then transferred to white, low-volume assay plates (Costar #3673). A 1.5× assay mixture containing His-tagged bromodomain, Europium-conjugated anti-His antibody (Invitrogen PV5596) and the Alexa-647-conjugated probe molecule was also prepared. Twelve μL of this solution were added to the assay plate to reach a final volume of 18 μL. The final concentration of 1× assay buffer contains 2% DMSO, 50 μM−0.85 nM compound, 8 nM bromodomain, 1 nM antibody and 100 or 30 nM probe (for BDI or BDII, respectively). After a one-hour incubation at room temperature, TR-FRET ratios were determined using an Envision multilabel plate reader (Ex 340, Em 495/520).
(§3) TR-FRET data were normalized to the means of 24 no-compound controls (“high”) and 8 controls containing 1 μM un-labeled probe (“low”). Percent inhibition was plotted as a function of compound concentration and the data were fit with the 4 parameter logistic equation to obtain IC50s Inhibition constants (Ki) were calculated from the IC50s, probe Kd and probe concentration. Typical Z′ values were between 0.65 and 0.75. The minimum significant ratio was determined to evaluate assay reproducibility (Eastwood et al., (2006) J Biomol Screen, 11: 253-261). The MSR was determined to be 2.03 for BDI and 1.93 for BDII, and a moving MSR (last six run MSR overtime) for both BDI and BDII was typically <3.

[1] = system: breast cancer cell line MX-1; assay: MX-1 cell line proliferation assay (3-day, Cell Titer Glo); type: cell-based, human; details: Homo sapiens, MX1, MX-1 cells, 72 hours, read-out: Cellular proliferation: EC50
Procedure: The impact of compounds of the Examples on cancer cell proliferation was determined using the breast cancer cell line MX-1 (ATCC) in a 3-day proliferation assay. MX-1 cells were maintained in RPMI supplemented with 10% FBS at 37 C.° and an atmosphere of 5% CO2. For compound testing, MX-1 cells were plated in 96-well black bottom plates at a density of 5000 cells/well in 90 μl of culture media and incubated at 37° overnight to allow cell adhesion and spreading. Compound dilution series were prepared in DMSO via a 3-fold serial dilution from 3 mM to 0.1 μM. The DMSO dilution series were then diluted 1:100 in phosphate buffered saline, and 10 μL of the resulted solution were added to the appropriate wells of the MX-1 cell plate. The final compound concentrations in the wells were 3, 1, 0.3, 0.1, 0.03, 0.01, 0.003, 0.001, 0.0003 and 0.0001 μM.
Luminescence readings from the Cell Titer Glo assay were normalized to the DMSO treated cells and analyzed using the GraphPad Prism software with sigmoidal curve fitting to obtain EC50s. The minimum significant ratio (MSR) was determined to evaluate assay reproducibility (Eastwood et al., (2006) J Biomol Screen, 11: 253-261).

BRD4 (BDII_E352-M457) = BRD4 (BDII_E352-M457) (Homo sapiens (Human), UniProt O60885); assay: TR-FRET bromodomain binding assay, BRD4 second bromodomain; details: His-tagged BD2, 30 nM Alexa647 probe
Procedure: as §1, §2, §3

Row | Structure (SMILES) | Ki (BRD4 (BDI_K57-E168)) | EC50 [1] | Ki (BRD4 (BDII_E352-M457))
1 | Cc1[nH]c(-c2ccccc2)c2c1C(=O)CCC2 [Example 1, 3-methyl-1-phenyl-2,5,6,7-tetrahydro-4H-isoindol-4-one] | 3.68 µM | 3.4 µM | 3.07 µM
2 | Cc1[nH]c(-c2ccc(S(N)(=O)=O)cc2)c2c1C(=O)CCC2 [Example 5, 4-(3-methyl-4-oxo-4,5,6,7-tetrahydro-2H-isoindol-1-yl)benzenesulfonamide] | 1.4 µM | 3.7 µM | 2.03 µM
3 | COc1cc(-c2[nH]c(C)c3c2CCCC3=O)cc(OC)c1OC [Example 7, 3-methyl-1-(3,4,5-trimethoxyphenyl)-2,5,6,7-tetrahydro-4H-isoindol-4-one] | 0.261 µM | 0.676 µM | 0.805 µM
4 | Cc1[nH]c(-c2ccc(S(C)(=O)=O)cc2)c2c1C(=O)CCC2 [Example 8, 3-methyl-1-[4-(methylsulfonyl)phenyl]-2,5,6,7-tetrahydro-4H-isoindol-4-one] | 1.43 µM | 2.5 µM | 3.82 µM
5 | Cc1[nH]c(-c2cccc(C(N)=O)c2)c2c1C(=O)CCC2 [Example 9, 3-(3-methyl-4-oxo-4,5,6,7-tetrahydro-2H-isoindol-1-yl)benzamide] | 0.961 µM | 2.75 µM | 3.1 µM
6 | Cc1[nH]c(-c2cccc3[nH]ccc23)c2c1C(=O)CCC2 [Example 10, 1-(1H-indol-4-yl)-3-methyl-2,5,6,7-tetrahydro-4H-isoindol-4-one] | 1.79 µM | 1.23 µM | 4.06 µM
7 | Cc1[nH]c(-c2ccccc2OCc2ccccc2)c2c1C(=O)CCC2 [Example 18, 1-[2-(benzyloxy)phenyl]-3-methyl-2,5,6,7-tetrahydro-4H-isoindol-4-one] | 0.943 µM | 1.23 µM | 2.03 µM
8 | Cc1[nH]c(-c2cccc3ccccc23)c2c1C(=O)CCC2 [Example 19, 3-methyl-1-(naphthalen-1-yl)-2,5,6,7-tetrahydro-4H-isoindol-4-one] |  | 3.18 µM | 
9 | Cc1[nH]c(-c2ccccc2-c2ccco2)c2c1C(=O)CCC2 [Example 27, 1-[2-(furan-2-yl)phenyl]-3-methyl-2,5,6,7-tetrahydro-4H-isoindol-4-one] | 2.76 µM |  | 6.58 µM
10 | Cc1[nH]c(-c2ccccc2O)c2c1C(=O)CCC2 [Example 28, 1-(2-hydroxyphenyl)-3-methyl-2,5,6,7-tetrahydro-4H-isoindol-4-one] | 5.31 µM |  | 15.1 µM
11 | Cc1[nH]c(-c2ccccc2OCC2CCCC2)c2c1C(=O)CCC2 [Example 30, 1-[2-(cyclopentylmethoxy)phenyl]-3-methyl-2,5,6,7-tetrahydro-4H-isoindol-4-one] | 1.25 µM |  | 4.78 µM
12 | Cc1[nH]c(-c2ccccc2OCc2cccc3cccnc23)c2c1C(=O)CCC2 [Example 35, 3-methyl-1-[2-(quinolin-8-ylmethoxy)phenyl]-2,5,6,7-tetrahydro-4H-isoindol-4-one] | 9.14 µM |  | 11 µM
13 | Cc1[nH]c(-c2ccccc2OCc2cccc3ccsc23)c2c1C(=O)CCC2 [Example 36, 1-[2-(1-benzothiophen-7-ylmethoxy)phenyl]-3-methyl-2,5,6,7-tetrahydro-4H-isoindol-4-one] | 8.83 µM |  | 9.73 µM
14 | Cc1[nH]c(-c2ccccc2OCc2ccc3[nH]ncc3c2)c2c1C(=O)CCC2 [Example 38, 1-[2-(1H-indazol-5-ylmethoxy)phenyl]-3-methyl-2,5,6,7-tetrahydro-4H-isoindol-4-one] | 4.88 µM |  | 4.86 µM
15 | Cc1[nH]c(-c2cc(NS(C)(=O)=O)ccc2Oc2ccc(F)cc2F)c2c1C(=O)CCC2 [Example 46, N-[4-(2,4-difluorophenoxy)-3-(3-methyl-4-oxo-4,5,6,7-tetrahydro-2H-isoindol-1-yl)phenyl]methanesulfonamide] | 0.014 µM |  | 0.052 µM
16 | Cc1[nH]c(-c2cc(NC(=O)c3ccc[nH]3)ccc2Oc2ccc(F)cc2F)c2c1C(=O)CCC2 [Example 51, N-[4-(2,4-difluorophenoxy)-3-(3-methyl-4-oxo-4,5,6,7-tetrahydro-2H-isoindol-1-yl)phenyl]-1H-pyrrole-2-carboxamide] | 0.164 µM |  | 0.943 µM
17 | COC(=O)c1ccc(Oc2ccccc2)c(-c2[nH]c(C)c3c2CCCC3=O)c1 [Example 53, methyl 3-(3-methyl-4-oxo-4,5,6,7-tetrahydro-2H-isoindol-1-yl)-4-phenoxybenzoate] | 0.927 µM |  | 3.67 µM
18 | Cc1[nH]c(-c2cc(C(=O)O)ccc2Oc2ccccc2)c2c1C(=O)CCC2 [Example 54, 3-(3-methyl-4-oxo-4,5,6,7-tetrahydro-2H-isoindol-1-yl)-4-phenoxybenzoic Acid] | 0.045 µM |  | 0.289 µM
19 | Cc1[nH]c(-c2cc(C(=O)Nc3nccs3)ccc2Oc2ccccc2)c2c1C(=O)CCC2 [Example 57, 3-(3-methyl-4-oxo-4,5,6,7-tetrahydro-2H-isoindol-1-yl)-4-phenoxy-N-(1,3-thiazol-2-yl)benzamide] | 1.07 µM |  | 22.2 µM
20 | Cc1[nH]c(-c2ccc3c(c2)OCO3)c2c1C(=O)CC(C)(C)C2 [Example 58, 1-(1,3-benzodioxol-5-yl)-3,6,6-trimethyl-2,5,6,7-tetrahydro-4H-isoindol-4-one] | 0.932 µM |  | 0.513 µM
21 | Cc1[nH]c(-c2ccccc2)c2c1C(=O)CC(C)(C)C2 [Example 59, 3,6,6-trimethyl-1-phenyl-2,5,6,7-tetrahydro-4H-isoindol-4-one] | 3.23 µM |  | 2.52 µM
22 | Cc1ccc(C)c(-c2[nH]c(C)c3c2CC(C)(C)CC3=O)c1 [Example 60, 1-(2,5-dimethylphenyl)-3,6,6-trimethyl-2,5,6,7-tetrahydro-4H-isoindol-4-one] | 3.37 µM |  | 2.7 µM
23 | Cc1[nH]c(-c2ccccc2N2CCOCC2)c2c1C(=O)CC(C)(C)C2 [Example 61, 3,6,6-trimethyl-1-[2-(morpholin-4-yl)phenyl]-2,5,6,7-tetrahydro-4H-isoindol-4-one] | 2.2 µM |  | 1.68 µM
24 | Cc1[nH]c(-c2ccccc2OCc2ccccc2)c2c1C(=O)CC(C)(C)C2 [Example 62, 1-[2-(benzyloxy)phenyl]-3,6,6-trimethyl-2,5,6,7-tetrahydro-4H-isoindol-4-one] | 1.5 µM |  | 1.75 µM
25 | Cc1[nH]c(-c2ccccc2Oc2ccccc2)c2c1C(=O)CC(C)(C)C2 [Example 63, 3,6,6-trimethyl-1-(2-phenoxyphenyl)-2,5,6,7-tetrahydro-4H-isoindol-4-one] | 0.786 µM |  | 1.03 µM
26 | Cc1[nH]c(-c2cc(N)ccc2Oc2ccccc2)c2c1C(=O)CC(C)C2 (stereo not shown) [Example 66, 1-(5-amino-2-phenoxyphenyl)-3,6-dimethyl-2,5,6,7-tetrahydro-4H-isoindol-4-one] | 0.058 µM |  | 0.069 µM
27 | Cc1[nH]c(-c2ccccc2Oc2ccccc2)c2c1C(=O)CC(C(C)C)C2 (stereo not shown) [Example 70, 3-methyl-1-(2-phenoxyphenyl)-6-(propan-2-yl)-2,5,6,7-tetrahydro-4H-isoindol-4-one] | 1.2 µM |  | 2.22 µM
28 | Cc1[nH]c(-c2cc(NS(C)(=O)=O)ccc2Oc2ccccc2)c2c1C(=O)CC(c1ccccc1)C2 (stereo not shown) [Example 72, N-[3-(3-methyl-4-oxo-6-phenyl-4,5,6,7-tetrahydro-2H-isoindol-1-yl)-4-phenoxyphenyl]methanesulfonamide] | 7.28 µM |  | 22.2 µM
29 | Cc1[nH]c(-c2cc(S(C)(=O)=O)ccc2OCC2CC2)c2c1C(=O)CCC2 [Example 73, 1-[2-(cyclopropylmethoxy)-5-(methylsulfonyl)phenyl]-3-methyl-2,5,6,7-tetrahydro-4H-isoindol-4-one] | 0.034 µM |  | 0.461 µM
